For one compound, zone of inhibition and MIC range results are on record in patent US10792295B2, “Compositions for management of Helicobacter pylori infections” (SAMI LABS LIMITED, priority 2017, dated 2020).

Holding throughout (assay type): cell-based
For assay [1], the system named is Helicobacter pylori ATCC 700392. The assay is described as follows: Well diffusion method, zones of inhibition. The conditions noted are these: ATCC700392, 72 h, H. pylori ATCC 700392, 1000 μg/well, 3 days, 37° C., microaerobic. The method, then: (§1) Helicobacter pylori ATCC 43504 and ATCC 700392 were purchased from the American Type Culture Collection (ATCC, Manassas, Va., USA). Cultures were grown in brain heart infusion (BHI) agar/broth (HiMedia, Mumbai India) supplemented with 7% (v/v) sheep blood or fetal bovine serum and incubated at 37° C. under microaerobic conditions (Na, 85%; 02, 5%; CO2, 10%) using an anaerobic chamber (Imset, Mumbai, India). Bacillus coagulans MTCC 5856 was grown in MRS media by adding inoculum (5% v/v) to the MRS broth and incubated at 37° C. for 24 h. After 24 h, the culture was centrifuged (5,000×g) to remove the cells and the supernatant was collected, concentrated 10-fold by lyophilization and filter sterilized through a 0.22 micron filter (Millipore, India). The cell-free supernatant was tested against H. pylori and 10-fold concentrated supernatant was also tested against H. pylori ATCC 43504 and ATCC 700392. Similar to above, BHI agar plates supplemented with 7% (v/v) fetal bovine serum were prepared containing a strain of Helicobacter pylori ATCC 43504 or ATCC 700392. Further, well was made in the BHI agar plates containing Helicobacter pylori ATCC 43504 or ATCC 700392. […] After incubation, the antibacterial activities were evaluated by measuring a diameter of the inhibition zone. […]
A general note: In agar diffusion tests the substance spreads into inoculated agar from a disc or well.

Assay [2] deals with Helicobacter pylori ATCC 43504. Nature of the assay: Well diffusion method, zones of inhibition. The conditions noted are these: ATCC43504, 72 h, H. pylori ATCC 43504, 1000 μg/well, 3 days, 37° C., microaerobic. The method, then: as §1
Assay [3] has as its system Helicobacter pylori ATCC 700392. Nature of the assay: Minimum inhibitory concentration (MIC) determination, broth microdilution. The conditions noted are these: H. pylori ATCC 700392; 72 h, BHI broth with 7% FBS, no turbidity. The procedure: (§2) Helicobacter pylori ATCC 43504 and ATCC 700392 were purchased from the American Type Culture Collection (ATCC, Manassas, Va., USA). Cultures were grown in brain heart infusion (BHI) agar/broth (HiMedia, Mumbai India) supplemented with 7% (v/v) sheep blood or fetal bovine serum and incubated at 37° C. under microaerobic conditions (Na, 85%; 02, 5%; CO2, 10%) using an anaerobic chamber (Imset, Mumbai, India). Bacillus coagulans MTCC 5856 was grown in MRS media by adding inoculum (5% v/v) to the MRS broth and incubated at 37° C. for 24 h. After 24 h, the culture was centrifuged (5,000×g) to remove the cells and the supernatant was collected, concentrated 10-fold by lyophilization and filter sterilized through a 0.22 micron filter (Millipore, India). The cell-free supernatant was tested against H. pylori and 10-fold concentrated supernatant was also tested against H. pylori ATCC 43504 and ATCC 700392. The MICs of curcumin, β-glucogallin and mucic acid gallates extract and Piperine extract were determined as per the guidelines of Clinical and Laboratory Standards Institute (formerly the National Committee for Clinical Laboratory Standards). […] After incubation, plates were visually read for the absence or presence of turbidity. The minimum concentration of the compound concentration showing no turbidity was recorded as MIC.

Assay [4] deals with Helicobacter pylori ATCC 43504. The assay is described as above. The settings on record: H. pylori ATCC 43504; 72 h, BHI broth with 7% FBS, no turbidity. The procedure: as §2

`COc1cc(/C=C/C(=O)CC(=O)/C=C/c2ccc(O)c(OC)c2)ccc1O` [Curcumin]: the zone of inhibition at 1000 µg/disc in assay [1] was 14 ± 1.2 mm; in assay [2], 13 ± 1.2 mm. The MIC range in assay [3] and in assay [4] was 125 to 250 µg/mL throughout.

As a reminder, the zone of inhibition is the extent of the growth-free halo in a diffusion test. Low readings indicate little suppression of growth, high ones wide suppression of growth.
